# “And” between values parts separate entries of the source, which are not always exact repeats. Equal entries are not always repeated.
# Legend:
# [1] = biological target: T1, PAR2 (Rattus norvegicus, UniProt Q63645); test: PAR2 agonist (2f-LIGRLO-NH2)-induced rat paw oedema, paw swelling; format: in vivo; details: for reduction of paw swelling: Wistar rats; for % swelling: 2f-induced rat paw oedema, individual animals (Figure 5a); for paw swelling: AZ3451 10 mg kg^−1 s.c. 30 min before, AZ8838 10 mg kg^−1 p.o. 2 h before 2f-LIGRLO-NH2; for anti-inflammatory activity in vivo after oral delivery / anti-inflammatory activity in vivo after subcutaneous injection: rat paw oedema
# T1 construct: from tissue; host or cells: hind paw of male Wistar rats, in vivo
# T1 sequence (Q63645 26-397): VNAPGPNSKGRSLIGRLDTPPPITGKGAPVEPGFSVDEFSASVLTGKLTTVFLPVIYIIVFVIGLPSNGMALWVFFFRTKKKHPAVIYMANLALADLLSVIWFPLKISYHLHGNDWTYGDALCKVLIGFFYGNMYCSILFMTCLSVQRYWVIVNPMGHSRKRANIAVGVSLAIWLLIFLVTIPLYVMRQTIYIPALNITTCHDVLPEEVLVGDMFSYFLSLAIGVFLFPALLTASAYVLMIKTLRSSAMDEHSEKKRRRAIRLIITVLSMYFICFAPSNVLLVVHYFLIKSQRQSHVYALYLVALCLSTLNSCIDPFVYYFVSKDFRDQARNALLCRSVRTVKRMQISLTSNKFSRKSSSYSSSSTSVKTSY
# Description: Following Australian ethical standards, animals were air transported to the Institute for Bioengineering and Nanotechnology (University of Queensland, Australia). Animals were housed at room temperature and kept in 12 h light/dark cycles, with standard chow and water provided ad libitum, for at least a 48 h acclimatisation period before experiments. […] Saline only was given to sham paws. […] Control animals received either DMSO s.c. or 20% DMSO/80% olive oil via oral gavage. […] At the 30 min time point, a portion of animals was euthanised by CO2 inhalation and their paws collected for further analyses. All in vivo experimental procedures and animal handling were conducted with approval from the Animal Ethics Committee at the University of Queensland which follows NHMRC and ARRIVE guidelines. After experimentation, animals are humanely euthanized by CO2 inhalation as stipulated by the ethical agreements.
# Experimental results were expressed as mean ± s.e.m. Graphs were plotted and data analysed using GraphPad Prism7. Statistical differences were assessed using Student’s t-tests (two-tailed) for data sets of two, one-way ANOVA for data sets of three or more with Bonferroni post-hoc tests, or two-way repeated-measures ANOVA with Tukey post-hoc tests for temporal data sets, as appropriate. Significance was set at ^+p < 0.05, ^++p < 0.01, ^+++p < 0.001, ^++++p < 0.0001 compared to sham, and *p < 0.05, **p < 0.01, ***p < 0.001, ****p < 0.0001 compared to disease control.
# [2] = tested on: myeloperoxidase (MPO) activity; test: Myeloperoxidase assay on rat paw tissue; format: in vivo; details: for MPO activity (unit mg^-1): 2f-induced rat paw oedema, paw tissue, individual animals (Figure 5i); for Myeloperoxidase (MPO) activity increased by 2f-LIGRLO-NH2: pre-treatment, 30 min
# Description: Rat paw tissues were collected, snap-frozen with liquid N2, and stored at −80 °C. Samples were cut with a scalpel, weighed, and added to MPO buffer (50 mM potassium phosphate buffer, pH 6.0) to a concentration of 200 mg ml^−^1, before homogenising using zirconium oxide beads (1 and 2 mm, Next Advance, USA) and a Bullet Blender® homogeniser (Next Advance, USA). Homogenised tissues were diluted to 100 mg ml^−1 with MPO buffer containing 1% hexadecyl trimethylammonium bromide (Sigma-Aldrich, USA). Samples were then sonicated for 5 min, centrifuged at 13,000 × g for 10 min at 4 °C, and the clear supernatant for each sample was collected.
# [3] = biological target: T2, beta-tryptase (uniprot P20231) (Homo sapiens, UniProt P20231); test: Tryptase enzyme activity assay; format: biochemical; details: 10 µM, n=1
# T2 construct: made in house; host or cells: Pichia pastoris
# T2 sequence (P20231 31-275): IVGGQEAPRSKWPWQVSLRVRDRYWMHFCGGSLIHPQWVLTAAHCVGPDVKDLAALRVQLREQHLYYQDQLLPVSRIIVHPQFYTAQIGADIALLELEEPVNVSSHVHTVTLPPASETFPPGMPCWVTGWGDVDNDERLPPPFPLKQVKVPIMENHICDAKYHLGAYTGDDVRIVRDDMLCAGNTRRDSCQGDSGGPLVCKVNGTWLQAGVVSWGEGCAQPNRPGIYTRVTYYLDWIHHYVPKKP
# Description: Tryptase Enzyme Activity Assay. The tryptase assay was carried out using beta-tryptase (uniprot P20231) produced in Pichia pastoris and using Tos-Gly-Pro-Lys-pNA as substrate (25 mM stock in ethanol) in 100 mM Tris pH 8.0, 100 mM NaCl, 10% glycerol, 0.5 mg mL-1 BSA, 0.1% DDM. Substrate (250 µM) was pre-incubated with test compound (10 µM) in assay buffer (200 ul) in clear bottom 96 well Greiner plates at room temperature. The re action was started by the addition of tryptase to a final concentration of 4.7 nM. Co nversion was recorded in a plate reader by monitoring the increase of absorption at λ = 405 nm over time. Activity was determined by linear fit of initial rate.
# [4] = tested on: mast cells; test: Mast cell staining (toluidine blue), activated/degranulated mast cells in rat paw; format: in vivo; design: Active mast cells (%): concentration or dose not given beside the values; details: for Active mast cells (%): 2f-induced rat paw oedema, individual animals (Figure 5b); for percentage activated/degranulated mast cells in paw induced by 2f-LIGRLO-NH2: pre-treatment, 30 min
# Description: Tissues were then embedded with Optimal Cutting Temperature compound (OCT, Sakura Finetek, USA) and stored at −80 °C before making cryo-sections for histological analysis. Frozen sections (5 µm) were made using a cryostat-microtome (Leica Biosystems, Germany). […] Slides were then dehydrated and mounted in DPX mountant (Sigma-Aldrich, USA). For immunohistochemistry, slides were briefly rinsed with PBS to remove OCT. Except for tryptase staining, antigen retrieval was performed by incubating slides in citrate buffer (0.01 M, pH 6) at 95 °C for 20 min. They were then cooled down briefly and incubated with blocking medium (PBS, 0.1% Triton X-100, 10% horse serum) for 1 h at room temperature in a humidity chamber. Samples were incubated with primary antibody medium (PBS, 0.1% Triton X-100, 4% horse serum; 1:100 primary antibody including – histamine, neutrophil elastase or ED1 antibodies) overnight at 4 °C. The next day, samples were washed with PBS and incubated with the secondary antibody medium (PBS, 0.1% Triton X-100, 4% horse serum, detection antibody 1:200) for 2 h at room temperature. For tryptase staining, slides were incubated with primary antibody medium (as above with tryptase antibody at 1:100 dilution) for 4 h, then the secondary antibody medium for 2 h. Finally, slides were dried, counterstained with DAPI (Invitrogen, Australia), and sealed with clear nail polish. Primary antibodies for tryptase (AA1, ab2378, Abcam, Australia), histamine (H7403, Sigma-Aldrich, USA), neutrophil elastase (ab21595, Abcam, Australia) and ED1 (ab31630, Abcam, Australia) were purchased from commercial sources. Secondary detection antibody was purchased from Abcam, Australia.
SMILES,reduction of paw swelling ([1]; 10 mg kg^−1 s.c. 30 min prior to 2f-LIGRLO-NH2 350 µg per paw),% swelling ([1]; Time 0 h),% swelling ([1]; Time 0.5 h),% swelling ([1]; Time 1 h),% swelling ([1]; Time 2 h),% swelling ([1]; Time 4 h),paw swelling [1],anti-inflammatory activity in vivo after oral delivery [1],anti-inflammatory activity in vivo after subcutaneous injection [1],MPO activity (unit mg^-1) [2],Myeloperoxidase (MPO) activity increased by 2f-LIGRLO-NH2 [2],inhibition of tryptase activity [3],Active mast cells (%) [4],percentage activated/degranulated mast cells in paw induced by 2f-LIGRLO-NH2 [4],reduction of paw swelling ([1]; 10 mg kg^−1 p.o. 2 h prior to 2f-LIGRLO-NH2 350 µg per paw)
C[C@@H](C1CCCCC1)n1c(-c2cc3c(cc2Br)OCO3)nc2cc(C(=O)Nc3ccc(C#N)cc3)ccc21 [AZ3451],60%,0%,48.3188% and 41.0115% and 38.4554% and 0.2044%,31.4446% and 1.303% and 21.2807% and 5.312%,1.7017% and 2.985% and 4.564% and -2.962%,3.1932% and 1.708% and -5.029% and 2.557%,significantly reduced paw swelling,not after oral delivery,active in vivo,0.2692 unit mg^-1 and 0.2802 unit mg^-1 and 0.295 unit mg^-1 and 0.3577 unit mg^-1,reduced almost to baseline,no,40% and 57.0833% and 59.9284% and 37.5635% and 18.0263%,inhibited,–
CCCc1cc(F)ccc1C(O)c1ncc[nH]1 (stereo not shown) [AZ8838],–,0%,24.8579% and 43.6327% and 41.4698% and 6.42%,17.7725% and 33.5029% and 21.2259% and 5.253%,-0.8821% and 11.1837% and 14.1177% and -4.556%,-4.225% and 3.626% and 12.7121% and -4.201%,significantly reduced paw swelling,anti-inflammatory in vivo,anti-inflammatory in vivo,0.2682 unit mg^-1 and 0.2003 unit mg^-1 and 0.454 unit mg^-1 and 0.2121 unit mg^-1 and 0.4127 unit mg^-1,reduced almost to baseline,no,57.5% and 42.6997% and 37.7451% and 42.5373% and 50%,inhibited,60%

# Source: PMC7747594, “Protease-activated receptor-2 ligands reveal orthosteric and allosteric mechanisms of receptor inhibition” (Communications Biology, 2020)
